Tested on: gastric mucosa
Test: test of pylorus ligature in rats (ulcerating index, inhibition of FANS-induced gastric lesions)
Assay type: in vivo, Charles River Wistar rats
Conditions: p.o., pylorus-ligated rats, 6 hours
Experimental: Several compositions containing sucralfate : FANS in weight ratios comprised within the range of from 1: 4 to 8 : 1 have been tested on rats by means of the test of pylorus ligature according to the technique Linda J. et al., J. Pharmac., 1978, 30, 244 - 246 "Inhibitors of Gastric Lesions in the Rat".
The testing has been carried out on Charles River Wis tar rats of 230 - 270 g of weight and in the number of 8 rats per each group. The rats, fasting from 15 hours, have been submitted to etheric anesthesia and then to the liga ture of the pylorus. The rats have been treated, immediate ly after the recovery, by means of gastric probe, with the FANS alone, with the FANS in the sucralfate-FANS form with sequential action according to the present invention, and by means of the administering of sucralfate first, and then, after a 10 minutes interval, of FANS.
The single active principles have been administered as aqueous suspension in sodium-CMC at 0.5% p.o.
Six hours later than the intervention, the rats have been sacrificed and the stomach, after having been withdrawn, has been cut along the line of the greater curvature. The stomach, after having been slightly washed with bidistilled water has been spread out and mounted on a support for the'evaluation of induced ulceration. The alterations detected on the gastric mucosa have been quantified on the basis of their type and largeness, with a value ranging from 0 to 1 (ulcerating index, UI), according to the following empirical scale: • 0 = mucose not damaged (control submitted to surgical handling and to placebo) • 0.25 = diffused accentuated hyperemia • 0.50 = diffused erosion • 0.75 = diffused hemorrhagic ulceration • 1 = diffused hemorrhagic ulceration with perforation and damaging of the whole gastric mucosa.
The activity of the form of sucralfate and FANS with sequential action according to the invention has been expressed as percentage inhibition of the lesion relatively to that observed in the control group as treated with the ligature of pylorus and administering of FANS only, and com pared to that obtained from the contemporary administering of sucralfate and FANS. The ID 50 (Inhibiting Dosis 50) was computated by the probit method.

## 3,4,5,6-tetra-(polyhydroxyalumino)-n-D-glu· copyranosyl sulphate - 2,3,4,5-tetra-(polyhydroxyalumino)-B-D-fructofuranoside sulphate [sucralfate]
Administering of the sucralfate-FANS form with sequential action, FANS: Diclofenac Na (50 mg/kg)
  Inhibiting Dosis 50 of sucralfate for the ulcerogenic activity of some FANS: 96.6 mg
Administering of the sucralfate-FANS form with sequential action, FANS: Indomethacin (100 mg/kg)
  Inhibiting Dosis 50 of sucralfate for the ulcerogenic activity of some FANS: 97 mg
Administering of the sucralfate-FANS form with sequential action, FANS: Sodium indoprofen betainate (200 mg/kg as indoprofen)
  Inhibiting Dosis 50 of sucralfate for the ulcerogenic activity of some FANS: 85.6 mg
Contemporary administering of sucralfate and of FANS, FANS: Diclofenac Na (50 mg/kg)
  Inhibiting Dosis 50 of sucralfate for the ulcerogenic activity of some FANS: 157 mg
Contemporary administering of sucralfate and of FANS, FANS: Indomethacin (100 mg/kg)
  Inhibiting Dosis 50 of sucralfate for the ulcerogenic activity of some FANS: 204 mg
Contemporary administering of sucralfate and of FANS, FANS: Sodium indoprofen betainate (200 mg/kg as indoprofen)
  Inhibiting Dosis 50 of sucralfate for the ulcerogenic activity of some FANS: 206 mg
